Reference: ChEMBL document CHEMBL2439971, “Design, synthesis and antiproliferative evaluation of fluorenone analogs with DNA topoisomerase I inhibitory properties” (Bioorg Med Chem, 2013)
Active and inactive are the calls of the source. No cut-off for these calls is given here.

What was measured:
[1] = test system: RPMI-8226; experiment: Cytotoxicity against human RPMI8226 cells at 10 uM after 48 hrs by sulforhodamine B assay relative to control; format: functional
[2] = test system: SR; experiment: Cytotoxicity against human SR cells after 48 hrs by sulforhodamine B assay; format: functional
[3] = Cytotoxicity against human Hs 578T cells at 10 uM after 48 hrs by sulforhodamine B assay relative to control; format: functional
[4] = test system: OVCAR-8; experiment: Cytotoxicity against human OVCAR8 cells after 48 hrs by sulforhodamine B assay; format: functional; details: OVCAR-8, 48 h
[5] = test system: DU-145; experiment: Cytotoxicity against human DU145 cells after 48 hrs by sulforhodamine B assay; format: functional; details: DU-145, 48 h
[6] = test system: IGROV-1; experiment: Cytotoxicity against human IGROV1 cells after 48 hrs by sulforhodamine B assay; format: functional; details: IGROV-1, 48 h
[7] = test system: SF-539; experiment: Cytotoxicity against human SF539 cells after 48 hrs by sulforhodamine B assay; format: functional; details: SF-539, 48 h
[8] = test system: HL-60(TB); experiment: Cytotoxicity against human HL-60(TB) cells at 10 uM after 48 hrs by sulforhodamine B assay relative to control; format: functional
[9] = test system: HCT-116; experiment: Cytotoxicity against human HCT116 cells at 10 uM after 48 hrs by sulforhodamine B assay relative to control; format: functional
[10] = organism: Homo sapiens; experiment: Inhibition of telomerase (unknown origin) at 10 uM TRAP assay
[11] = test system: CCRF-CEM; experiment: Cytotoxicity against human CCRF-CEM cells after 48 hrs by sulforhodamine B assay; format: functional
[12] = test system: UO-31; experiment: Cytotoxicity against human UO31 cells after 48 hrs by sulforhodamine B assay; format: functional; details: UO-31, 48 h
[13] = test system: A549; experiment: Cytotoxicity against human A549 cells at 10 uM after 48 hrs by sulforhodamine B assay relative to control; format: functional
[14] = test system: OVCAR-3; experiment: Cytotoxicity against human OVCAR3 cells after 48 hrs by sulforhodamine B assay; format: functional; details: OVCAR-3, 48 h
[15] = test system: 786-0; experiment: Cytotoxicity against human 786-0 cells at 10 uM after 48 hrs by sulforhodamine B assay relative to control; format: functional
[16] = test system: UACC-257; experiment: Cytotoxicity against human UACC257 cells at 10 uM after 48 hrs by sulforhodamine B assay relative to control; format: functional
[17] = test system: UACC-62; experiment: Cytotoxicity against human UACC62 cells at 10 uM after 48 hrs by sulforhodamine B assay relative to control; format: functional
[18] = test system: MOLT-4; experiment: Cytotoxicity against human MOLT4 cells after 48 hrs by sulforhodamine B assay; format: functional; details: MOLT-4, 48 h
[19] = test system: NCI-H522; experiment: Cytotoxicity against human NCI-H522 cells at 10 uM after 48 hrs by sulforhodamine B assay relative to control; format: functional
[20] = test system: OVCAR-5; experiment: Cytotoxicity against human OVCAR5 cells after 48 hrs by sulforhodamine B assay; format: functional; details: OVCAR-5, 48 h
[21] = test system: OVCAR-4; experiment: Cytotoxicity against human OVCAR4 cells at 10 uM after 48 hrs by sulforhodamine B assay relative to control; format: functional
[22] = test system: MDA-MB-231; experiment: Cytotoxicity against human MDA-MB-231 cells after 48 hrs by sulforhodamine B assay; format: functional; details: MDA-MB-231, 48 h
[23] = test system: OVCAR-5; experiment: Cytotoxicity against human OVCAR5 cells at 10 uM after 48 hrs by sulforhodamine B assay relative to control; format: functional
[24] = test system: ACHN; experiment: Cytotoxicity against human ACHN cells after 48 hrs by sulforhodamine B assay; format: functional
[25] = test system: HOP-92; experiment: Cytotoxicity against human HOP92 cells at 10 uM after 48 hrs by sulforhodamine B assay relative to control; format: functional
[26] = test system: HL-60(TB); experiment: Cytotoxicity against human HL-60(TB) cells after 48 hrs by sulforhodamine B assay; format: functional; details: HL-60, 48 h
[27] = test system: TK-10; experiment: Cytotoxicity against human TK10 cells after 48 hrs by sulforhodamine B assay; format: functional; details: TK-10, 48 h
[28] = test system: SNB-75; experiment: Cytotoxicity against human SNB75 cells at 10 uM after 48 hrs by sulforhodamine B assay relative to control; format: functional
[29] = test system: NCI-H322M; experiment: Cytotoxicity against human NCI-H322M cells at 10 uM after 48 hrs by sulforhodamine B assay relative to control; format: functional
[30] = test system: ACHN; experiment: Cytotoxicity against human ACHN cells at 10 uM after 48 hrs by sulforhodamine B assay relative to control; format: functional
[31] = test system: MOLT-4; experiment: Cytotoxicity against human MOLT4 cells at 10 uM after 48 hrs by sulforhodamine B assay relative to control; format: functional
[32] = test system: MCF7; experiment: Cytotoxicity against human MCF7 cells at 10 uM after 48 hrs by sulforhodamine B assay relative to control; format: functional
[33] = test system: COLO 205; experiment: Cytotoxicity against human COLO205 cells after 48 hrs by sulforhodamine B assay; format: functional; details: COLO 205, 48 h
[34] = test system: HCT-15; experiment: Cytotoxicity against human HCT15 cells at 10 uM after 48 hrs by sulforhodamine B assay relative to control; format: functional
[35] = test system: SF-295; experiment: Cytotoxicity against human SF295 cells after 48 hrs by sulforhodamine B assay; format: functional; details: SF-295, 48 h
[36] = test system: MDA-MB-468; experiment: Cytotoxicity against human MDA-MB-468 cells at 10 uM after 48 hrs by sulforhodamine B assay relative to control; format: functional
[37] = test system: A549; experiment: Cytotoxicity against human A549/ATCC cells after 48 hrs by sulforhodamine B assay; format: functional; details: A549, 48 h
[38] = test system: SK-MEL-28; experiment: Cytotoxicity against human SK-MEL-28 cells after 48 hrs by sulforhodamine B assay; format: functional; details: SK-MEL-28, 48 h
[39] = test system: HCT-15; experiment: Cytotoxicity against human HCT15 cells after 48 hrs by sulforhodamine B assay; format: functional; details: HCT-15, 48 h
[40] = test system: HCC 2998; experiment: Cytotoxicity against human HCC2998 cells at 10 uM after 48 hrs by sulforhodamine B assay relative to control; format: functional
[41] = read-out: LC50 (the source's name)

CCCCNCC(=O)Nc1ccc2c(c1)C(=O)c1cc(NC(=O)CNCCCC)ccc1-2
Activity [1]: -37.38%
GI50 [2]: 0.22 µM
TGI [2]: 0.53 µM
CC50 [2, 41]: 3.44 µM
Activity [3]: 37.13%
GI50 [4]: 2.19 µM
TGI [4]: 6.16 µM
CC50 [4, 41]: 28.9 µM
GI50 [5]: 1.43 µM
TGI [5]: 3.37 µM
CC50 [5, 41]: 7.94 µM
GI50 [6]: 2.24 µM
TGI [6]: 6.53 µM
CC50 [6, 41]: 40.6 µM
GI50 [7]: 1.76 µM
TGI [7]: 3.26 µM
CC50 [7, 41]: 6.05 µM
Activity [8]: -63.01%
Activity [9]: -89.71%
inhibition [10]: inactive
GI50 [11]: 1.6 µM
TGI [11]: 4.02 µM
CC50 [11, 41]: 10.7 µM
GI50 [12]: 2.04 µM
TGI [12]: 5.47 µM
CC50 [12, 41]: 25.2 µM
Activity [13]: -32.16%
GI50 [14]: 1.73 µM
TGI [14]: 3.23 µM
CC50 [14, 41]: 6.05 µM
Activity [15]: -73.24%
Activity [16]: -84.17%
Activity [17]: 7.57%
GI50 [18]: 0.56 µM
TGI [18]: 2.29 µM
CC50 [18, 41]: 7.26 µM
Activity [19]: -50.74%
GI50 [20]: 3.06 µM
TGI [20]: 10.6 µM
CC50 [20, 41]: 34.5 µM
Activity [21]: -29.46%
GI50 [22]: 1.39 µM
TGI [22]: 2.9 µM
CC50 [22, 41]: 6.02 µM
Activity [23]: 93.22%
GI50 [24]: 1.4 µM
TGI [24]: 4.14 µM
CC50 [24, 41]: 14.9 µM
Activity [25]: 6.92%
GI50 [26]: 1.1 µM
TGI [26]: 2.77 µM
CC50 [26, 41]: 6.98 µM
GI50 [27]: 2.43 µM
TGI [27]: 6.67 µM
CC50 [27, 41]: 24.1 µM
Activity [28]: 36.53%
Activity [29]: -0.61%
Activity [30]: 18.19%
Activity [31]: -42.18%
Activity [32]: 10.48%
GI50 [33]: 1.27 µM
TGI [33]: 2.64 µM
CC50 [33, 41]: 5.48 µM
Activity [34]: 24.17%
GI50 [35]: 1.67 µM
TGI [35]: 3.47 µM
CC50 [35, 41]: 7.2 µM
Activity [36]: -67.44%
GI50 [37]: 1.53 µM
TGI [37]: 3.37 µM
CC50 [37, 41]: 7.39 µM
GI50 [38]: 1.94 µM
TGI [38]: 3.46 µM
CC50 [38, 41]: 6.18 µM
GI50 [39]: 1.26 µM
TGI [39]: 3.34 µM
CC50 [39, 41]: 8.89 µM
Activity [40]: -50.75%
